# Measurements: paper PMC7997937 (AMB Express, 2021)
# Where no end group is shown, it is not given here.
# How the values were obtained:
# [1] = ppGpp binding affinity by ZIC-HILIC HPLC; settings: ppGpp 1000 μg/mL + peptide 400 μg/mL, 10 min, centrifuged, HPLC UV 260 nm; mean of triplicate; ppGpp control peak area 34904
# Description: The temperature of the column is kept at 25 ℃. The ppGpp (TriLink BioTechnologies, USA) which diluted with mobile phase to a concentration of 1000 μg/mL, was used as a positive control. Then the ppGpp (1000 μg/mL) was incubated with peptides (400 μg/mL) for 10 min and centrifuged at 12000 rpm for 10 min. The ppGpp concentration of the samples was calculated by comparing the peak areas of the ppGpp standard.
# [2] = Temperature stability (MIC read-out); assay type: physicochemical; settings: MIC against MRSA ATCC43300
# Description: (§1) The untreated peptides were used as control. […] All assays were performed in triplicate.
# [3] = assay type: physicochemical; settings: for MIC at pH 2–10, folds of the normal condition: 3 h incubation in buffers pH 2.0–10.0, relative to MH medium
# Description: as §1
# [4] = system: trypsin; settings: trypsin 250 U/mg, pH 8.0, 10:1 w/w, 4 h, 37 °C; MIC against MRSA ATCC43300
# Description: (§2) The pH stability of peptides was determined after 3 h incubation in 100 mM glycine-HCl buffer (pH 2.0), sodium acetate buffer (pH 4.0), sodium phosphate buffer (pH 6.0), Tris-HCl buffer (pH 8.0), or glycine-NaOH buffer (pH 10.0). Additionally, peptides were incubated in pepsin (3000 U/mg, pH 2.0) and trypsin (250 U/mg, pH 8.0) (10:1, w/w) solutions for 4 h at 37 °C, respectively. The untreated peptides were used as control. The antibacterial activity of treated peptides against MRSA ATCC43300 was determined by MIC determine assay (Yang et al. [2017]). All assays were performed in triplicate.
# [5] = system: genomic DNA from MRSA ATCC43300; assay: Gel retardation assay; assay type: binding, Staphylococcus aureus; settings: 10 min, room temperature, 1% agarose gel
# Description: To examine the interaction of peptides and MRSA genomic DNA, the gel migration experiment was performed. Genomic DNA was obtained by bacterial genome extraction kit. Different concentrations (0.625 to 20 μg/mL) of peptides and DNA were mixed and incubated for 10 min at room temperature. The migration of genomic DNA was analyzed by electrophoresis on a 1% agarose gel.
# [6] = system: MRSA ATCC43300 biofilm; assay: Inhibition of biofilm formation, crystal violet; assay type: cell-based, Staphylococcus aureus
# Description: To evaluate the effect of peptides on the biofilm information, mid-logarithmic phase MRSA ATCC43300 (1×10^8 CFU/mL) was grown in tryptic soy broth (TSB) medium on 96-well plates at 37 °C […] in the presence (2–64 μg/mL) or absence of peptides (de Breij et al. [2018]; de Breij et al. [2016]). Subsequently, the planktonic bacteria were removed and biofilms were stained for 30 min with 0.1% crystal violet. After rinsing with PBS twice, the dye binding to the adherent bacterial cells was resolubilized in 95% ethanol (200 μL/well). Finally, absorbance was measured at 570 nm with a microplate reader. Fresh TSB medium was used as negative control.
# [7] = ref de la Fuente-Nunez et al. [2014]; cited from earlier work
# Text: Antimicrobial peptides (AMPs) are kind of bioactive agents with multiple modes of action and appear as one of the most promising antimicrobial drug candidates (Hancock and Sahl [2006]). […] The antimicrobial activity of AMPs was mainly based on their positive charge and hydrophobic residues, which gave them the properties of bacterial cell membrane destruction (Mahlapuu et al. [2016]). Among them, a small synth ...
# [8] = system: MRSA ATCC43300; assay: microbe, parasite or virus in culture
# Description: (§3) The MIC values of peptides against test stains were determined by the microtiter broth dilution method. The bacteria were grown to mid-logarithmic phase and diluted to 1 × 10^5 CFU/mL. Two-fold serial dilutions of peptides were prepared with a gradient concentration of 1280, 640, 320, 160, 80, 40, 20, 10, 5, 2.5, 1.25, and 0.625 μg/mL. A total of 10 μL each serial concentration gradient peptide solutions and 90 μL bacterial suspension were added into 96-well plates. Then the plate was cultured at 37 ℃ for 16–24 h. Vancomycin was tested as control. All assays were performed in triplicate. The MIC refers to the lowest peptide concentration at which there is no visible growth of bacteria (Wiegand et al. [2008]).
# [9] = system: MSSA ATCC25923; assay: microbe, parasite or virus in culture
# Description: as §3
# [10] = system: MSSA ATCC6538; assay: microbe, parasite or virus in culture
# Description: as §3
# [11] = system: pepsin; settings: pepsin 3000 U/mg, pH 2.0, 10:1 w/w, 4 h, 37 °C; MIC against MRSA ATCC43300
# Description: as §2
# [12] = system: MRSA ATCC43300; assay: SEM/TEM observation of treated bacteria; assay type: cell-based, Staphylococcus aureus; settings: 4× MIC, 2 h, 37 °C
# Description: The bacteria were fixed with 2.5% glutaraldehyde at 4 °C overnight. For SEM, the bacterial were then dehydrated with a series of graded ethanol solutions (20%, 50%, 70%, 85%, 95% and 100%) and dried by CO2. Gold-palladium was sputtered on samples and observed on a S4800 SEM. For TEM, bacterial were post-fixed with 1% OsO4 for 1 h and then dehydrated for 7 min each time with a graded acetone series (50%, 70%, 85%, 95% and 100%). The samples were immersed in epoxy resin and embedded in capsules containing embedding medium, polymerized at 45 °C for 3 h and at 65 °C for 24 h, respectively. Ultramicrotome was used to acquire thin sections, followed by staining with 1% uranyl acetate. Images were visualized by a Hitachi H-7650 TEM (Yang et al. [2019]).
# [13] = system: MRSA ATCC43300 biofilm; assay: Biofilms observed by CLSM and SEM; assay type: cell-based, Staphylococcus aureus; settings: 64 μg/mL, 24 h, SYTO9/PI
# Description: In order to further explore whether the formation of MRSA ATCC43300 biofilms can be inhibited by peptides, the mid-log phase bacteria were diluted to 1 × 10^8 CFU/mL with TSB medium and seeded into 24-well plates with a glass microscope slide or silicon slice in each well. A concentration of 64 μg/mL peptides were added into plates and incubated for 24 h. Planktonic bacteria were removed by washing with PBS gently. Biofilms on glass microscope slide were stained with SYTO9 and PI according to the instruction (LIVE/DEAD BacLight Bacterial Viability Kit). After incubation for 15 min, the slides were washed with PBS and the biofilms were visualized by SP8 CLSM. Biofilm on silicon slice could be observed by SEM after immobilization, dehydration, drying and coating (Yang et al. [2019]).
# [14] = system: MRSA ATCC43300; assay: qRT-PCR of ppGpp metabolism and biofilm formation related genes; assay type: cell-based, Staphylococcus aureus; settings: 4× MIC, 2 h, 16s rRNA reference
# Description: The ppGpp metabolism and biofilm formation related genes RSH, relP, relQ, rsbU, sigB, spA, codY, agrA and icaD were chosen in this study. Primer sequences were designed and listed in Additional file 1: Table S1. The 16s rRNA was used as a housekeeping one. […] After washing twice with PBS, the total RNA was isolated. Then cDNA was obtained followed by removing genomic DNA. Finally, real-time reverse transcription-polymerase chain reaction (qRT-PCR) was conducted as previously described. The relative expression ratios were calculated as follows: n-fold transcription = 2^−△△Ct, ∆∆Ct = ∆Ct (drug-treated)[…]∆Ct (untreated), where ∆Ct represents the difference between the cycle threshold (Ct) of the gene studied and the Ct of housekeeping 16s rRNA gene (internal control). Student’s t test was used for analyzing those PCR results (Lee et al. [2013]).
# [15] = system: MRSA ATCC43300; assay: Time-kill curves; assay type: cell-based, Staphylococcus aureus; settings: 2× MIC
# Description: The time-kill curves against MRSA ATCC43300 were assayed to evaluate the pharmacodynamics of peptides. The mid-log phase bacteria were diluted to 1×10^5 CFU/mL with fresh medium. […] Finally, the mixtures were cultured at 37 °C and 250 rpm. Samples (150 μL) were taken from each flask at 0, 0.5, 1, 2, 4, 6, 8, 10, 12 and 24 h of incubation, and antimicrobial efficiency was measured by plate colony count (Yang et al. [2019]). Treatment with peptide solvent (PBS) and vancomycin at 2× MIC were used as the negative and positive control. All tests were run in triplicate.
molecule,measurement,setting,value
"VRLIVAVRIWRR-NH2 [IDR-1018, reference compound]",mean ppGpp peak area after incubation with peptide,[1],19723
same,retained antibacterial activity,[2]; 100 °C for 1 h,50%
same,"MIC at pH 2–10, folds of the normal condition",[3],1-4 times
same,"MIC after trypsin, times of the untreated peptide",[4],16-32 times
same,concentration inhibiting migration of genomic DNA,[5],1.25 µg/mL
same,impact on biofilm formation,[6]; 2–64 μg/mL,nearly no impact
same,MBIC100 (anti-biofilm),[7],2 to 10 µg/mL
same,MIC (antibacterial),[7],8 to 256 µg/mL
VRLRWWRRRWRR-NH2 [1018M],mean ppGpp peak area after incubation with peptide,[1],14255
same,MIC,[8]; ATCC43300,2 µg/mL
same,MIC,[9]; ATCC25923,2 µg/mL
same,MIC,[10]; ATCC6538,1 µg/mL
same,antibacterial activity after heat exposure,"[2]; 20, 40, 60, 80 or 100 °C for 1 h, triplicate",not changed
same,MIC at pH 2–10,"[3]; 3 h, pH 2",2–4 μg/mL
same,"MIC at pH 2–10, folds of the normal condition",[3],1–2 folds
same,activity after treatment with pepsase,[11],100%
same,"MIC after trypsin, times of the untreated peptide",[4],16-32 times
same,ghost bacteria (TEM),[12],About 10%
same,concentration inhibiting migration of genomic DNA,[5],5 µg/mL
same,decrease of percentage of biofilm,"[6]; 64 μg/mL, 24 h, A570",78.9%
same,biofilm formation observed by CLSM,[13],completely inhibited
same,"transcription of AgrA gene, times upregulated",[14],2.595 time
"CN[C@H](CC(C)C)C(=O)N[C@H]1C(=O)N[C@@H](CC(N)=O)C(=O)N[C@H]2C(=O)N[C@H]3C(=O)N[C@H](C(=O)N[C@H](C(=O)O)c4cc(O)cc(O)c4-c4cc3ccc4O)[C@H](O)c3ccc(c(Cl)c3)Oc3cc2cc(c3O[C@@H]2O[C@H](CO)[C@@H](O)[C@H](O)[C@H]2O[C@H]2C[C@](C)(N)[C@H](O)[C@H](C)O2)Oc2ccc(cc2Cl)[C@H]1O [vancomycin, reference compound]",MIC,[8]; Staphylococcus aureus,1 µg/mL
same,MIC,[9]; Staphylococcus aureus,1 µg/mL
same,MIC,[10]; Staphylococcus aureus,1 µg/mL
same,incubation time after which bacteria rejuvenated,[15],10 h
